Assay results published in ChEMBL document CHEMBL1177794, “Broad spectrum alkynyl inhibitors of T315I Bcr-Abl” (Bioorg Med Chem Lett, 2010).

Columns and labels:
[1] = molecular target: Calcium/calmodulin-dependent protein kinase type 1D (Homo sapiens) (UniProt Q8IU85); assay: Inhibition of CAMK1D at 10 uM; conditions: values are per cent of control
[2] = molecular target: Serine/threonine-protein kinase PAK 5 (Homo sapiens) (UniProt Q9P286); assay: Inhibition of PAK7 at 10 uM; conditions: values are per cent of control
[3] = molecular target: Serine/threonine-protein kinase mTOR (Homo sapiens) (UniProt P42345); assay: Inhibition of MTOR at 10 uM; values are per cent of control
[4] = molecular target: Serine/threonine-protein kinase SIK3 (Homo sapiens) (UniProt Q9Y2K2); assay: Inhibition of QSK at 10 uM
[5] = molecular target: Serine/threonine-protein kinase LATS1 (Homo sapiens) (UniProt O95835); assay: Inhibition of LATS1 at 10 uM; values are per cent of control
[6] = molecular target: Calcium/calmodulin-dependent protein kinase type 1 (Homo sapiens) (UniProt Q14012); assay: Inhibition of CAMK1 at 10 uM; conditions: values are per cent of control
[7] = molecular target: Platelet-derived growth factor receptor beta (Homo sapiens) (UniProt P09619); assay: Inhibition of PDGFRB at 10 uM; values are per cent of control
[8] = molecular target: TGF-beta receptor type-2 (Homo sapiens) (UniProt P37173); assay: Inhibition of TGFBR2 at 10 uM
[9] = molecular target: Aurora kinase B (Homo sapiens) (UniProt Q96GD4); assay: Inhibition of AURKB at 10 uM; conditions: values are per cent of control
[10] = molecular target: Cyclin-dependent kinase 7 (Homo sapiens) (UniProt P50613); assay: Inhibition of CDK7 at 10 uM; values are per cent of control
[11] = molecular target: Ribosomal protein S6 kinase alpha-1 (Homo sapiens) (UniProt Q15418); assay: Inhibition of RSK1 C-terminal domain2 at 10 uM
[12] = molecular target: Activin receptor type-2B (Homo sapiens) (UniProt Q13705); assay: Inhibition of ACVR2B at 10 uM; values are per cent of control
[13] = molecular target: Phosphatidylinositol 4-phosphate 5-kinase type-1 alpha (Homo sapiens) (UniProt Q99755); assay: Inhibition of PIP5K1A at 10 uM
[14] = molecular target: Mitogen-activated protein kinase kinase kinase kinase 4 (Homo sapiens) (UniProt O95819); assay: Inhibition of MAP4K4 at 10 uM; conditions: values are per cent of control
[15] = molecular target: Serine/threonine-protein kinase TAO3 (Homo sapiens) (UniProt Q9H2K8); assay: Inhibition of TAOK3 at 10 uM
[16] = molecular target: Serine/threonine-protein kinase 24 (Homo sapiens) (UniProt Q9Y6E0); assay: Inhibition of MST3 at 10 uM
[17] = molecular target: Calcium/calmodulin-dependent protein kinase kinase 1 (Homo sapiens) (UniProt Q8N5S9); assay: Inhibition of CAMKK1 at 10 uM; conditions: values are per cent of control
[18] = molecular target: Macrophage colony-stimulating factor 1 receptor (Homo sapiens) (UniProt P07333); assay: Inhibition of CSF1R at 10 uM; conditions: values are per cent of control
[19] = molecular target: Death-associated protein kinase 2 (Homo sapiens) (UniProt Q9UIK4); assay: Inhibition of DAPK2 at 10 uM; conditions: values are per cent of control
[20] = molecular target: Serine/threonine-protein kinase 17B (Homo sapiens) (UniProt O94768); assay: Inhibition of DRAK2 at 10 uM; conditions: values are per cent of control
[21] = molecular target: Mitogen-activated protein kinase kinase kinase kinase 1 (Homo sapiens) (UniProt Q92918); assay: Inhibition of HPK1 at 10 uM; conditions: values are per cent of control
[22] = molecular target: Hormonally up-regulated neu tumor-associated kinase (Homo sapiens) (UniProt P57058); assay: Inhibition of HUNK at 10 uM; conditions: values are per cent of control
[23] = molecular target: Ribosomal protein S6 kinase alpha-2 (Homo sapiens) (UniProt Q15349); assay: Inhibition of RSK3 C-terminal domain2 at 10 uM
[24] = molecular target: Serine/threonine-protein kinase Nek6 (Homo sapiens) (UniProt Q9HC98); assay: Inhibition of NEK6 at 10 uM
[25] = molecular target: Ephrin type-A receptor 7 (Homo sapiens) (UniProt Q15375); assay: Inhibition of EPHA7 at 10 uM; conditions: values are per cent of control
[26] = molecular target: RAC-gamma serine/threonine-protein kinase (Homo sapiens) (UniProt Q9Y243); assay: Inhibition of AKT3 at 10 uM; conditions: values are per cent of control
[27] = tested on: Mast/stem cell growth factor receptor Kit (Homo sapiens), P10721 [A829P]; assay: Inhibition of KIT A829P mutant at 10 uM; conditions: values are per cent of control
[28] = molecular target: Mitogen-activated protein kinase 14 (Homo sapiens) (UniProt Q16539); assay: Inhibition of p38alpha at 10 uM; values are per cent of control
[29] = molecular target: Serine/threonine-protein kinase Nek5 (Homo sapiens) (UniProt Q6P3R8); assay: Inhibition of NEK5 at 10 uM
[30] = molecular target: CDK4/Cyclin D3 (Homo sapiens) (UniProt P11802+P30281); assay: Inhibition of CDK4/cyclin D3 at 10 uM; values are per cent of control
[31] = molecular target: Microtubule-associated serine/threonine-protein kinase 1 (Homo sapiens) (UniProt Q9Y2H9); assay: Inhibition of MAST1 at 10 uM; conditions: values are per cent of control
[32] = molecular target: Homeodomain-interacting protein kinase 2 (Homo sapiens) (UniProt Q9H2X6); assay: Inhibition of HIPK2 at 10 uM; conditions: values are per cent of control
[33] = molecular target: Ribosomal protein S6 kinase alpha-4 (Homo sapiens) (UniProt O75676); assay: Inhibition of RPS6KA4 N-terminal domain1 at 10 uM
[34] = molecular target: Uncharacterized serine/threonine-protein kinase SBK3 (Homo sapiens) (UniProt P0C264); assay: Inhibition of SgK110 at 10 uM
[35] = molecular target: RAC-alpha serine/threonine-protein kinase (Homo sapiens) (UniProt P31749); assay: Inhibition of AKT1 at 10 uM; conditions: values are per cent of control
[36] = molecular target: Ankyrin repeat and protein kinase domain-containing protein 1 (Homo sapiens) (UniProt Q8NFD2); assay: Inhibition of ANKK1 at 10 uM; conditions: values are per cent of control
[37] = molecular target: Tyrosine-protein kinase Tec (Homo sapiens) (UniProt P42680); assay: Inhibition of TEC at 10 uM; values are per cent of control
[38] = molecular target: Ephrin type-B receptor 2 (Homo sapiens) (UniProt P29323); assay: Inhibition of EPHB2 at 10 uM; values are per cent of control
[39] = molecular target: Tyrosine-protein kinase ABL1 (Homo sapiens) (UniProt P00519); assay: Inhibition of phosphorylated ABL1 at 10 uM; conditions: values are per cent of control
[40] = molecular target: Non-receptor tyrosine-protein kinase TYK2 (Homo sapiens) (UniProt P29597); assay: Inhibition of TYK2 JH2 pseudokinase domain at 10 uM; conditions: values are per cent of control
[41] = molecular target: G protein-coupled receptor kinase 4 (Homo sapiens) (UniProt P32298); assay: Inhibition of GRK4 at 10 uM; conditions: values are per cent of control
[42] = molecular target: Mitogen-activated protein kinase 13 (Homo sapiens) (UniProt O15264); assay: Inhibition of p38delta at 10 uM; values are per cent of control
Sequence of Mitogen-activated protein kinase 13 (Homo sapiens) (O15264 whole entry): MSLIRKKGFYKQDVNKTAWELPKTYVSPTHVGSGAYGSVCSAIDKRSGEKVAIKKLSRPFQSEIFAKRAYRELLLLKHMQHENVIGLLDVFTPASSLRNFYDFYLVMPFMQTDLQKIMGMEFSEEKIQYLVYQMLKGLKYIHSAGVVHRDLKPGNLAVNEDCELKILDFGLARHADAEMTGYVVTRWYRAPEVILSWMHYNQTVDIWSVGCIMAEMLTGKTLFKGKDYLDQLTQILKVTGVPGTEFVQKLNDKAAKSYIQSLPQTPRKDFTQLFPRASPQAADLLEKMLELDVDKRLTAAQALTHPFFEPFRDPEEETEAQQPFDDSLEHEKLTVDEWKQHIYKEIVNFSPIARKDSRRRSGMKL

Sequence of Serine/threonine-protein kinase PAK 5 (Homo sapiens) (Q9P286 whole entry, looked up): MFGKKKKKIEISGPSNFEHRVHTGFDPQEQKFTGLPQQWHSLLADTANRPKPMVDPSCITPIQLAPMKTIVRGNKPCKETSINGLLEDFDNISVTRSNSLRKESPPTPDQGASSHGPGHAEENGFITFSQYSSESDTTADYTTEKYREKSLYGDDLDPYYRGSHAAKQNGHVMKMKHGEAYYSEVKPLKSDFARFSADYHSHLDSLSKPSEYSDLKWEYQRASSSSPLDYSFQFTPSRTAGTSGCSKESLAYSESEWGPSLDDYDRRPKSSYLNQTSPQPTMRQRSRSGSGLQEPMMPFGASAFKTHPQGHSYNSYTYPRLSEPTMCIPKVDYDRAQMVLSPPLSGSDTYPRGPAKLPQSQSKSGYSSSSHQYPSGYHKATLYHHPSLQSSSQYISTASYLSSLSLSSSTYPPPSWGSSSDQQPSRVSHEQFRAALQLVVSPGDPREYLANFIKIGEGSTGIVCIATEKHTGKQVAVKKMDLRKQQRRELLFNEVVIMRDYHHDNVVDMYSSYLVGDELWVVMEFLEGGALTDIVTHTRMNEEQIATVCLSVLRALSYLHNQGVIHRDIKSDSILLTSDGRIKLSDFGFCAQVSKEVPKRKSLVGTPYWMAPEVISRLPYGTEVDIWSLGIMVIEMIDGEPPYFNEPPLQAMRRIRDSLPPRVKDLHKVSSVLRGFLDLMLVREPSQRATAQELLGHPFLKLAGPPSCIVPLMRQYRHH
Sequence of Tyrosine-protein kinase ABL1 (Homo sapiens) (P00519 whole entry, the tested form may be a part): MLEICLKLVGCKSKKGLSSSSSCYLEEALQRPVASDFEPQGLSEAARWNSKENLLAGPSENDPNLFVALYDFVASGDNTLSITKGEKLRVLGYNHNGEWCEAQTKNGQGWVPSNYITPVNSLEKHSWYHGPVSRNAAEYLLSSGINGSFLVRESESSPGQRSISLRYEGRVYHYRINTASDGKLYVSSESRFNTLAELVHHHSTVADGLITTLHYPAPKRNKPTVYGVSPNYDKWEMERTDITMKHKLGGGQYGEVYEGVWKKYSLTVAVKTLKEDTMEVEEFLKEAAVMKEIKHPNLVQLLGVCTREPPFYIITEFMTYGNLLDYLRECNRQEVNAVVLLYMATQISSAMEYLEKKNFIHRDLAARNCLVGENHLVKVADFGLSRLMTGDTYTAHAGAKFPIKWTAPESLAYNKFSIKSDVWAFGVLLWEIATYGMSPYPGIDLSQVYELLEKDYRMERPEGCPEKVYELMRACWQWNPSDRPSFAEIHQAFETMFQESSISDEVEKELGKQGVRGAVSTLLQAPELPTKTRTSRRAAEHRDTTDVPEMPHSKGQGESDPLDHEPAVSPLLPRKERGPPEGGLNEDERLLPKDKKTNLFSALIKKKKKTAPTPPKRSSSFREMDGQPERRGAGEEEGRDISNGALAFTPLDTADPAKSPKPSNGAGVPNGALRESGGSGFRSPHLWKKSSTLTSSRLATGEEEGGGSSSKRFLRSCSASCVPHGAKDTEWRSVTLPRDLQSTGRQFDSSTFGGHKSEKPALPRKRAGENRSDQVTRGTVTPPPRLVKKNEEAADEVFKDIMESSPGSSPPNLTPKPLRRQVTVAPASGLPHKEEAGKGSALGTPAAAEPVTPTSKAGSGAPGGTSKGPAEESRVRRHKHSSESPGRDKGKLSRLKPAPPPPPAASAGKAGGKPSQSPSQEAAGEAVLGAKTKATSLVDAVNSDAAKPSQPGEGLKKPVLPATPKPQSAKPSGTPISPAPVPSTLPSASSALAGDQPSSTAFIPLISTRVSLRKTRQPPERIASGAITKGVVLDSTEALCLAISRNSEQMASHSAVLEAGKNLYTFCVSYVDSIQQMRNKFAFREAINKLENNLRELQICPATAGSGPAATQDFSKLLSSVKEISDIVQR
Sequence of Serine/threonine-protein kinase SIK3 (Homo sapiens) (Q9Y2K2 whole entry, looked up): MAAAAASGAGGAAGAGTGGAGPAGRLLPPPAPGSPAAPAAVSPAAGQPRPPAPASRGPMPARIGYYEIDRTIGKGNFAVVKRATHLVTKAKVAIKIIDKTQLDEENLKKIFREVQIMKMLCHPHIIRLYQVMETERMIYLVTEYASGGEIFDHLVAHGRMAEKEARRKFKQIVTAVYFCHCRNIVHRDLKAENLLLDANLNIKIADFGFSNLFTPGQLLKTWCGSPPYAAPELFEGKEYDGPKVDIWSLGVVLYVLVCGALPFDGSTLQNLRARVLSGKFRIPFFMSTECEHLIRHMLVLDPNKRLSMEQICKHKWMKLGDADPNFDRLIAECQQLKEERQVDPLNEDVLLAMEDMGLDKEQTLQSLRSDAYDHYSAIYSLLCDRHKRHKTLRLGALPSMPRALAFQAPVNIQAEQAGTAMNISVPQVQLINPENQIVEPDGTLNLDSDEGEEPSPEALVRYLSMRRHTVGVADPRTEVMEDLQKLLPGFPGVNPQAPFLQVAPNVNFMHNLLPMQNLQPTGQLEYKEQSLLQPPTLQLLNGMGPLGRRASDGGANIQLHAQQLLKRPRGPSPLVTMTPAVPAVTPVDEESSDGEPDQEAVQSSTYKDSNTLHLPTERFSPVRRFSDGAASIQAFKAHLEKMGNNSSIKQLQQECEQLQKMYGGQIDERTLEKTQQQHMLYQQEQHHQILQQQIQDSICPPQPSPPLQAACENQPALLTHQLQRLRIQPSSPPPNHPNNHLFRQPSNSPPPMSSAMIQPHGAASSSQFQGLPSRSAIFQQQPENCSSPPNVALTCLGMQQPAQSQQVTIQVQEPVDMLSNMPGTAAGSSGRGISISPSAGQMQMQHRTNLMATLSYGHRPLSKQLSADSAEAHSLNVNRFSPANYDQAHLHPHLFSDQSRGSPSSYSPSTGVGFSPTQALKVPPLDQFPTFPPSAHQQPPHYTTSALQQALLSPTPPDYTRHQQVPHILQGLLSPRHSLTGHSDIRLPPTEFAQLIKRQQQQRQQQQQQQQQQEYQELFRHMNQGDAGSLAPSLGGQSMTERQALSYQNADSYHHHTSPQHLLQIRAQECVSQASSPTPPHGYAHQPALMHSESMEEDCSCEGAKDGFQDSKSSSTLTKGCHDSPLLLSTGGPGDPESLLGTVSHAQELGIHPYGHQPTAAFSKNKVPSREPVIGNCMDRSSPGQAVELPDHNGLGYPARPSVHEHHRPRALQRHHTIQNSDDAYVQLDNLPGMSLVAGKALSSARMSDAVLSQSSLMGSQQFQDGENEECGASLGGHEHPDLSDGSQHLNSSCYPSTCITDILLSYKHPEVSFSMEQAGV
Sequence of Ephrin type-B receptor 2 (Homo sapiens) (P29323 whole entry): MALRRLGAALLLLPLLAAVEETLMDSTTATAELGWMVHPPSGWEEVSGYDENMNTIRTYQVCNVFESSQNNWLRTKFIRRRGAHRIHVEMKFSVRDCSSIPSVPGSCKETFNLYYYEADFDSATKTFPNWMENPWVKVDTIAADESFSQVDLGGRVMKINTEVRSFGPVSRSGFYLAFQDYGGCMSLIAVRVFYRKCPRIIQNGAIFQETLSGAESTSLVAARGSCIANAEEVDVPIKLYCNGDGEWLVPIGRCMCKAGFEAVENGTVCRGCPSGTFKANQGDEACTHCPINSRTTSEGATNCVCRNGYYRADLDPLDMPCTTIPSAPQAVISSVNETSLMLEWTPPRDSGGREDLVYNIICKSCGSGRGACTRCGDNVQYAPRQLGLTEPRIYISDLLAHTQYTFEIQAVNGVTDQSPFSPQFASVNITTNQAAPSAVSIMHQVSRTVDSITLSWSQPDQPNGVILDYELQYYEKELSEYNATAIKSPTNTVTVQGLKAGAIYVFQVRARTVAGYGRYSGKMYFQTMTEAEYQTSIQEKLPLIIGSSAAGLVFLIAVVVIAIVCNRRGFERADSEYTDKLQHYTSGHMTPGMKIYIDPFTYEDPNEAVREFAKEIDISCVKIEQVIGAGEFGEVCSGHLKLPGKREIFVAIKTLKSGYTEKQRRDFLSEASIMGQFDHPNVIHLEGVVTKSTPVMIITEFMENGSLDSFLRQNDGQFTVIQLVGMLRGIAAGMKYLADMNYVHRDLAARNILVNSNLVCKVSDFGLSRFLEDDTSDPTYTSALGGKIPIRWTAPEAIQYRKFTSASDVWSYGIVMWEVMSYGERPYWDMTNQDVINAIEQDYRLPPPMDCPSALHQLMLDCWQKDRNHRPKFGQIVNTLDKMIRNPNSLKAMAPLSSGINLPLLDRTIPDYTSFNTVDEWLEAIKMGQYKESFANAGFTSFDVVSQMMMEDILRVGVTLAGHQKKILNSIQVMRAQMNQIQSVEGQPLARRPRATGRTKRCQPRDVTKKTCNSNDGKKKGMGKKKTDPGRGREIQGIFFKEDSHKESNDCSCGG
Sequence of RAC-gamma serine/threonine-protein kinase (Homo sapiens) (Q9Y243 whole entry): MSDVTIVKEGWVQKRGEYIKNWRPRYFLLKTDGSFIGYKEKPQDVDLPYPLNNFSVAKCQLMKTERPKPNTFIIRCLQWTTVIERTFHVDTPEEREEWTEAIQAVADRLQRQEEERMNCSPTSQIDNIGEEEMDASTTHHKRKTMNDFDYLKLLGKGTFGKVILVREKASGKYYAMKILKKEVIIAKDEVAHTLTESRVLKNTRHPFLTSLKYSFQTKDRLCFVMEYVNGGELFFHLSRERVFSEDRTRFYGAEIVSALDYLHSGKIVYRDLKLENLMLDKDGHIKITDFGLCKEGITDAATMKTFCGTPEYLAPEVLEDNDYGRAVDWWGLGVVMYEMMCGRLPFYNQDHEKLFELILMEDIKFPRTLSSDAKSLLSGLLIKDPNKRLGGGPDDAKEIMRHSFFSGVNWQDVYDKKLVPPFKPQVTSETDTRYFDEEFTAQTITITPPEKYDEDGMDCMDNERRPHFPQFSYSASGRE

CCN1CCN(Cc2ccc(NC(=O)c3ccc(C)c(C#Cc4cnc5[nH]ccc5c4)c3)cc2C(F)(F)F)CC1
residual binding, % of control [1]: 68% | residual binding, % of control [2]: 64% | level, % of control [3]: 88% | inhibition [4]: 77% | level, % of control [5]: 3.4% | residual binding, % of control [6]: 20% | level, % of control [7]: 0% | inhibition [8]: 1.4% | residual binding, % of control [9]: 4.6% | level, % of control [10]: 4% | inhibition [11]: 17% | level, % of control [12]: 23% | inhibition [13]: 10% | residual binding, % of control [14]: 1.8% | inhibition [15]: 0% | inhibition [16]: 3.6% | residual binding, % of control [17]: 69% | residual binding, % of control [18]: 0% | residual binding, % of control [19]: 100% | residual binding, % of control [20]: 12% | residual binding, % of control [21]: 0.05% | residual binding, % of control [22]: 21% | inhibition [23]: 87% | inhibition [24]: 73% | residual binding, % of control [25]: 0.1% | residual binding, % of control [26]: 82% | residual binding, % of control [27]: 24% | level, % of control [28]: 0% | inhibition [29]: 0.65% | level, % of control [30]: 65% | residual binding, % of control [31]: 100% | residual binding, % of control [32]: 46% | inhibition [33]: 3.6% | inhibition [34]: 42% | residual binding, % of control [35]: 41% | residual binding, % of control [36]: 7.1% | % of control [37]: 0.1% | level, % of control [38]: 0.6% | residual binding, % of control [39]: 0.05% | residual binding, % of control [40]: 96% | residual binding, % of control [41]: 14% | % of control [42]: 2.6%

CCN1CCN(Cc2ccc(NC(=O)c3ccc(C)c(C#Cc4cccnc4)c3)cc2C(F)(F)F)CC1
residual binding, % of control [1]: 72% | residual binding, % of control [2]: 83% | level, % of control [3]: 92% | inhibition [4]: 70% | level, % of control [5]: 20% | residual binding, % of control [6]: 40% | level, % of control [7]: 0% | inhibition [8]: 1.3% | residual binding, % of control [9]: 24% | level, % of control [10]: 1.6% | inhibition [11]: 7.2% | level, % of control [12]: 96% | inhibition [13]: 79% | residual binding, % of control [14]: 3.3% | inhibition [15]: 0% | inhibition [16]: 2.8% | residual binding, % of control [17]: 53% | residual binding, % of control [18]: 0% | residual binding, % of control [19]: 100% | residual binding, % of control [20]: 100% | residual binding, % of control [21]: 0.4% | residual binding, % of control [22]: 54% | inhibition [23]: 30% | inhibition [24]: 90% | residual binding, % of control [25]: 0.55% | residual binding, % of control [26]: 48% | residual binding, % of control [27]: 27% | level, % of control [28]: 0% | inhibition [29]: 4.8% | level, % of control [30]: 54% | residual binding, % of control [31]: 100% | residual binding, % of control [32]: 34% | inhibition [33]: 30% | inhibition [34]: 100% | residual binding, % of control [35]: 81% | residual binding, % of control [36]: 8.2% | % of control [37]: 3.7% | level, % of control [38]: 0.1% | residual binding, % of control [39]: 0% | residual binding, % of control [40]: 99% | residual binding, % of control [41]: 47% | % of control [42]: 2.5%
